Reference: paper PMC9601927 (Foods, 2022)

Tests used:
Format in all cases: cell-based
[1] = system: sGLT1; experiment: Western blot of sGLT1 expression in Caco-2 cells after siRNA transfection and incubation
Procedure: (§1) Firstly, the cells were washed twice with 1 mL of cold PBS and then lysed in 100 μL of ice-cold RIPA lysis buffer. Western blot analysis was performed following the previous method with minor modifications. Briefly, total protein samples were resolved by SDS-PAGE (8%, 10%, or 12%) and transferred to PVDF membranes blocked with 5% nonfat milk powder in TBST; these were then incubated with 8 μg of primary antibody at a dilution of 1:1000/500 (v/v) overnight at 4 °C. Detection was performed with 10 mL of ECL and oxidizing reagent and equal amounts of HRP-conjugated anti-mouse at a 1:5000 (v/v) dilution rate. To further illustrate the effect of FA-g-CS on the transmembrane transport of ANC, the Caco-2 cells were transfected with siRNA targeted to sGLT1 and GLUT2 (the optimal interference fragments screened by previous tests) and then incubated with FA-g-CS, ANC, or their combinations. Finally, the expressions of sGLT1 and GLUT2 were detected using a Western blot assay.

[2] = system: GLUT2; experiment: Western blot of GLUT2 expression in Caco-2 cells after siRNA transfection and incubation
Procedure: as §1

[3] = system: GLUT2; experiment: Immunofluorescence staining of GLUT2 in Caco-2 cells; details: ANC 2.3 × 10^−4 mg/mL or FA-g-CS 9 × 10^−5 mg/mL, 48 h
Procedure: Immunofluorescence staining was carried out to further validate the effect of FA-g-CS/ANC on the expression of sGLT1 and GLUT2. In short, Caco-2 cells were transfected with NC siRNA (negative control), GLUT2-siRNA-2, and sGLT1-siRNA-3; then, they were seeded onto a 4-well slide and chamber (Watson, Kobe, Japan). Subsequently, cells were incubated with 0.09 µg/mL FA-g-CS, 0.23 µg/mL ANC, or their combination at 37 °C for 48 h. Then, they were fixed with 4% paraformaldehyde for 10 min and soaked with 0.5% Triton X-100 in PBS for 15 min. In this study, goat serum was used to avoid nonspecific binding at room temperature. After 30 min of treatments, the cells were incubated with the primary antibody ([…], Santa Cruz Biotechnology, with 1:100 dilutions) at 4 °C overnight, followed by incubation with the secondary antibody (goat anti-mouse IgG1-HRP, Santa Cruz Biotechnology, Shanghai, China, with 1:100 dilutions) for 1 h at 20–37 °C. Nuclear staining was performed with DAPI, and the images were captured with a fluorescence microscope (BX53, Olympus, Tokyo, Japan).

[4] = cells treated with nonrelated and scrambled siRNA
[5] = cells treated with siRNA transfection
[6] = siRNA-transfected Caco-2 cells incubated with compounds (abstract)

OC[C@H]1O[C@@H](Oc2cc3c(O)cc(O)cc3[o+]c2-c2ccc(O)c(O)c2)[C@H](O)[C@@H](O)[C@@H]1O [ANC, Cyanidin-3-glucoside]
expression of sGLT1 compared with the blank [1, 4]: significantly elevated
expression level of sGLT1 compared with the blank control [1, 5]: significantly increased
increased sGLT1 expression [1, 6]: < 60%
expression of GLUT2 compared with the blank [2, 4]: significantly elevated
expression level of GLUT2 compared with the blank control [2, 5]: significantly increased
increased GLUT2 expression [2, 6]: < 60%
protein level of GLUT2 (immunofluorescence) compared with the control cells [3]: increased
